# Data taken from patent publication US7241737B2, “Urotensin-II agonists and antagonists” (priority 2000, dated 2007).
# Entries after “also recorded” stand apart in the source; their conditions may differ. Bridge positions count the residues as written; N and C are the ends. Ends that are not written are not given here.
# Assays:
# rat aorta contraction = experiment: Peptide-induced contraction of rat aorta rings (agonist activity)
# Procedure: Male Sprague-Dawley rats (250-350 g), which had been quarantined for 5-7 days prior to the experiments, were sacrificed by decapitation (experiments were approved by the Advisory Committee For Animal Resources, Tulane University School of Medicine). The thoracic aorta was dissected, freed from connective tissue, and cut into rings of about 1.5 mm in width. The rings were suspended in a 15 ml organ bath containing high potassium Kreb's solution (9.15 g/L potassium chloride, 2.1 g/L sodium bicarbonate, 1.0 g/L glucose, 0.16 g/L potassium phosphate monobasic, 0.14 g/L magnesium sulfate (anhydr.), and 0.22 g/L calcium chloride (dihydr.))
# Optimal tension was applied (0.2 g) to the tissues and the bath medium was maintained at 37° C. and bubbled with a mixture of 95% O2/5% CO2. […] Changes in arterial smooth muscle tension were recorded isometrically using a force-displacement transducer (Radnoti), and a AcqKnowledge ACK100 Version 3.2 (BIOPAC Systems, Inc., Santa Barbara, Calif.)
# In siliconized glass tubes, peptides were dissolved in dionized water at a concentration of 1 μg/1 μL (stock solution) and then diluted 1:10 with sterile BSA-saline solution (0.1% BSA, fraction V, Sigma, St. Louis in 0.9% NaCl). […] Peptide-induced changes in tension of the aorta rings were recorded by force-displacement transducers and processed by the computer system BIOPAC Inc., as described above. […]
# U-II receptors = biological target: T1, U-II receptors (Rattus norvegicus, UniProt P49684); experiment: Binding to U-II receptors (rat aorta tissue)
# T1 construct: from tissue; host or cells: rat thoracic aorta (circular strips / rings)
# T1 sequence (P49684 1-386): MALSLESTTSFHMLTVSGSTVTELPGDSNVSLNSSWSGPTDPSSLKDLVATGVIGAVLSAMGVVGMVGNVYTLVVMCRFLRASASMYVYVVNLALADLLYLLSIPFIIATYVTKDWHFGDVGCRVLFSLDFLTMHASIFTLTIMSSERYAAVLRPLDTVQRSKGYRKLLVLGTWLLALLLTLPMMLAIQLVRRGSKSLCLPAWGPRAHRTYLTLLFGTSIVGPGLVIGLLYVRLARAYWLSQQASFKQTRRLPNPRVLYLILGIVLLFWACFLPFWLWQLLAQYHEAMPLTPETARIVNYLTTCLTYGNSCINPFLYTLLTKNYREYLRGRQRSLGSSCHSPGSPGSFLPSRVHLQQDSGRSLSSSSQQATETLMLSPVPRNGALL
substance,measurement,setting,value
Asp-c[Cys-Phe-Trp-Lys-Tyr-Cys]-Val-OH (DCFWKYCV-OH; disulfide 2-7 (inferred)),potency in inducing rat aorta contraction relative to full human and fish U-II,rat aorta contraction,greater potency than the full human and fish U-II sequences; also recorded: more potent than the full human and fish sequences
same,potency in binding to rat aorta tissue relative to full human and fish U-II,U-II receptors,greater potency than the full human and fish U-II sequences
